Data set [1] relates to apomorphine-induced climbing. The experiment in a line: apomorphine-induced climbing test in mice. The data set is classed as in vivo, CD1 mice. As to conditions: Mus musculus; mice, ip. 30 min before apomorphine 2 mg/kg s.c.; read-out: Climbing ED50 (mg/kg ip.). The protocol:
Anti-apomorphine effects were investigated in the climbing test in mice mediated through the mesolimbic and stereotypy test in rats mediated through the nigrostriatal system. Conventional antipsychotics antagonize both apomorphine-induced behaviours, while known atypical antipsychotics are weaker against apomorphine stereotypy.
The climbing test was carried out according to Protais et al. (Protais, P. et al. Psychopharmacologia, 1976, 50, 1.) Stereotyped behavior was induced in food deprived (for 16 hours) male CD1 mice weighing 20-25 g body by apomorphine HCl (SIGMA) in a s.c. dose of 2 mg/kg. Mice were placed individually into cylinders having 12 cm diameter and consisting of vertical bars of 2 mm diameter where apomorphine treated animals tended to adopt a vertical position in contrary to vehicle treated controls. Test substances were applied ip. 30 min before apomorphine.
10 and 20 min after apomorphine treatment the climbing behaviour was evaluated by scores of 0-2. 10 mice/group were used. The scores of the two readings were summed individually, meaned and compared to the control. The ED50 values were calculated by Litchfield-Wilcoxon's method (Litchfield Jr. J. T., Wilcoxon, F. J. Pharmacol. Exp. Ther. 1949, 96, 49,).

The values that follow come from patent US20080269202A1, “Novel 2,3-benzodiazepine derivatives and their use as antipsychotic agents” (Teva Pharmaceutical Industries Ltd., priority 2007, published 2008).

Where a name gives a salt, the structure may show the parent alone.

One may read the melting point as the temperature of the solid-liquid transition. `COc1cc2c(cc1OC)C(c1ccc(N)cc1)=NN(C1=NNC(=O)CS1)C(C)C2` (racemic) [Example 154] registered a melting point of 159 to 163 °C.

The compound `COc1cc2c(cc1OC)C(c1ccc(NC(C)=O)c(C)c1)=NN(c1nccs1)[C@H](C)C2` [Example 185] yielded a melting point of 229 to 231 °C.

Consider `COc1cc2c(cc1OC)C(c1ccc(F)cc1)=NN(c1ncon1)C(C)C2` (stereo not shown) [Example 50], for which the melting point was 217 to 220 °C.

`COc1cc2c(cc1OC)C(c1ccc(N)cc1)=NN(c1nccs1)C(C)C2` (racemic) [Example 136]: the melting point lay in the range of 119 to 122 °C.

With `CNC(=O)N1N=C(c2ccccc2[N+](=O)[O-])c2cc(OC)c(OC)cc2CC1C` (stereo not shown), the melting point lay in the range of 174 to 176 °C.

The compound `COc1cc2c(cc1OC)C(c1ccc(N)c(C)c1)=NN(C(=O)NC1CC1)[C@H](C)C2` returned a melting point of 112 to 114 °C.

The compound `COc1cc2c(cc1OC)C(c1ccc([N+](=O)[O-])cc1)=NN(c1ncon1)C(C)C2` (stereo not shown) [Example 41] returned a melting point of 190 to 192 °C.

As to `CCOc1cc2c(cc1OCC)C(c1ccc([N+](=O)[O-])cc1)=NN(c1ncon1)C(C)C2` (stereo not shown) [Example 52], the melting point lay within 158 to 162 °C.

On to `CCNC(=O)N1N=C(c2ccc(N)cc2)c2cc(OC)c(OC)cc2CC1C` (racemic), for which the melting point lay within 169 to 170 °C.

For the compound `CNC(=O)N1N=C(c2cc(C)c(N)c(C)c2)c2cc(OC)c(OC)cc2C[C@H]1C`, the melting point was in the range of 110 to 113 °C.

In the case of `COc1cc2c(cc1OC)C(c1ccc(N)cc1)=NN(c1nc(C)cs1)C(C)C2` (racemic) [Example 137], the melting point was 122 to 124 °C.

The compound `COc1cc2c(cc1OC)C(c1ccc(NC(C)=O)cc1)=NN(c1nccs1)C(C)C2` (stereo not shown) [Example 181] showed a melting point of 130 to 134 °C.

Take `CNC(=O)N1N=C(c2ccc([N+](=O)[O-])c(Cl)c2)c2cc(OC)c(OC)cc2CC1C` (stereo not shown) [76]: the melting point was 195 to 197 °C.

On to `COc1cc2c(cc1OC)C(c1ccc(N)cc1)=NN(c1nc(C)n[nH]1)C(C)C2` (racemic) [Example 163], for which the melting point lay within 164 to 167 °C.

With `CNC(=O)N1N=C(c2cccc(N)c2)c2cc(OC)c(OC)cc2CC1C` (racemic), the melting point lay within 103 to 108 °C.

As for `CCOc1cc2c(cc1OCC)C(c1ccc([N+](=O)[O-])cc1)=NN(C(=O)NC)C(C)C2` (stereo not shown) [Example 93], the melting point is 188 to 189 °C.

The compound `COc1cc2c(cc1OC)C(c1ccc([N+](=O)[O-])c(C)c1)=NN(c1noc(C)n1)C(C)C2` (stereo not shown) [Example 47] registered a melting point of 206 to 208 °C.

Compound `CCOc1cc2c(cc1OCC)C(c1ccc([N+](=O)[O-])cc1)=NN(c1nncs1)C(C)C2` (stereo not shown) [Example 26] showed a melting point of 172 to 174 °C.

Consider `COc1cc2c(cc1OC)C(c1ccc(N)cc1)=NN(C1=NC(=O)C(C)S1)C(C)C2` (racemic) [Example 143], for which the melting point fell in the range of 184 to 188 °C.

For the compound `COc1cc2c(cc1OC)C(c1ccc(N)c(C)c1)=NN(c1ncon1)C(C)C2` (racemic) [Example 157], the melting point lay within 234 to 237 °C.

As to `COc1cc2c(cc1OC)C(c1ccccc1)=NN(C1=NOCS1)C(C)C2` (stereo not shown) [Example 37], the melting point was in the range of 170 to 173 °C.

`CCCCNC(=O)N1N=C(c2ccc(N)cc2)c2cc(OC)c(OC)cc2CC1C` (racemic): the melting point lay in the range of 204 to 207 °C.

In turn, `COc1cc2c(cc1OC)C(c1ccc([N+](=O)[O-])c(C)c1)=NN(c1nncs1)C(C)C2` (stereo not shown) [Example 20] registered a melting point of 192 to 195 °C.

The compound `CNC(=O)N1N=C(c2ccc(N)c(C)c2)c2cc(OC)c(OC)cc2CC1C` (racemic) registered a melting point of 119 to 122 °C.

`COc1cc2c(cc1OC)C(c1ccc([N+](=O)[O-])c(C)c1)=NN(c1nncs1)C(C)C2` (stereo not shown) [Example 19] had a melting point of 195 to 196 °C.

Consider `COc1cc2c(cc1OC)C(c1ccc(N)cc1)=NN(c1nccs1)[C@H](C)C2` [Example 112], for which the melting point lay in the range of 229 to 230 °C. In data set [1], the ED50 was determined as 25 mg/kg.

As to `COc1cc2c(cc1OC)C(c1ccc(N)c(Cl)c1)=NN(c1ncon1)[C@H](C)C2` [Example 107], the melting point was in the range of 108 to 110 °C.

`COc1cc2c(cc1OC)C(c1ccc([N+](=O)[O-])cc1)=NN(c1ncc(C)s1)C(C)C2` (stereo not shown) [Example 7]: the melting point was 122 to 123 °C.

In turn, `CCNC(=O)N1N=C(c2ccc(N)c(C)c2)c2cc(OC)c(OC)cc2C[C@H]1C` displayed a melting point of 107 to 110 °C.

The compound `COc1cc2c(cc1OC)C(c1ccc(N)cc1)=NN(C(=O)NC1CC1)C(C)C2` (racemic) yielded a melting point of 120 to 123 °C.

Compound `COc1cc2c(cc1OC)C(c1ccc(N)cc1)=NN(c1nc(C)c(C)s1)C(C)C2` (racemic) [Example 139] gave a melting point of 121 to 124 °C.

With `COc1cc2c(cc1OC)C(c1ccc([N+](=O)[O-])cc1)=NN(c1ncon1)C(C)C2` (stereo not shown) [Example 40], the melting point fell in the range of 213 to 214 °C.

In turn, `COc1cc2c(cc1OC)C(c1ccc(N)cc1)=NN(C(=O)N1CCOCC1)C(C)C2` (racemic) [Example 177] registered a melting point of 124 to 127 °C.

The compound `COc1cc2c(cc1OC)C(c1cccc(Cl)c1)=NN(c1nc(C)c(C)s1)C(C)C2` (stereo not shown) (as salt: HCl) [Example 11] showed a melting point of 174 to 176 °C.

With `CCNC(=O)N1N=C(c2ccc([N+](=O)[O-])cc2)c2cc(OC)c(OC)cc2CC1C` (stereo not shown) [78], the melting point fell in the range of 206 to 208 °C.

As for `COc1cc2c(cc1OC)C(c1ccc([N+](=O)[O-])cc1)=NN(c1nc(C)c(C)s1)C(C)C2` (stereo not shown) [Example 9], the melting point is 190 to 192 °C.

`COc1cc2c(cc1OC)C(c1ccc([N+](=O)[O-])c(C)c1)=NN(c1nccs1)C(C)C2` (stereo not shown) [Example 3] returned a melting point of 145 to 147 °C.

Turning to `COc1cc2c(cc1OC)C(c1ccc(N)c(Cl)c1)=NN(c1ncon1)C(C)C2` (racemic) [Example 158], the melting point lay within 232 to 235 °C.

Consider `COc1cc2c(cc1OC)C(c1ccc(NC(C)=O)c(C)c1)=NN(c1nccs1)C(C)C2` (stereo not shown) [Example 182], for which the melting point fell in the range of 209 to 211 °C.

Compound `CNC(=O)N1N=C(c2ccc(N)c(Cl)c2)c2cc(OC)c(OC)cc2CC1C` (racemic) gave a melting point of 119 to 120 °C.

For `COc1cc2c(cc1OC)C(c1ccc(N)cc1)=NN(c1nncs1)C(C)C2` (racemic) [Example 144], the melting point was 152 to 153 °C.

With `COc1cc2c(cc1OC)C(c1ccc(N)cc1)=NN(c1nc(C)nn1C)C(C)C2` (racemic) [Example 167], the melting point lay within 113 to 115 °C.

`CNC(=O)N1N=C(c2ccc(Cl)cc2)c2cc(OC)c(OC)cc2CC1C` (stereo not shown) displayed a melting point of 164 to 166 °C.

Compound `COc1cc2c(cc1OC)C(c1ccc(N)c(C)c1)=NN(c1ncon1)[C@@H](C)C2` [Example 105] registered a melting point of 136 to 138 °C.

Compound `COc1cc2c(cc1OC)C(c1ccc([N+](=O)[O-])cc1)=NN(c1nc(C)c(C)s1)C(C)C2` (stereo not shown) [Example 8] gave a melting point of 192 to 193 °C.

Regarding `COc1cc2c(cc1OC)C(c1ccc(N)c(Cl)c1)=NN(c1nncs1)C(C)C2` (racemic) [Example 148], the melting point lay within 125 to 130 °C.

In turn, `CCOc1cc2c(cc1OCC)C(c1ccc(N)cc1)=NN(c1nncs1)C(C)C2` (racemic) [Example 149] gave a melting point of 108 to 113 °C.

The compound `COc1cc2c(cc1OC)C(c1ccc(F)cc1)=NN(C1=NOCS1)C(C)C2` (stereo not shown) [Example 36] gave a melting point of 186 to 191 °C.

For `CCCNC(=O)N1N=C(c2ccc(N)c(C)c2)c2cc(OC)c(OC)cc2C[C@H]1C`, the melting point was in the range of 92 to 95 °C.

The compound `COc1cc2c(cc1OC)C(c1ccc(N)c(C)c1)=NN(C(=O)NC(C)C)[C@H](C)C2` registered a melting point of 115 to 117 °C.

For `CNC(=O)N1N=C(c2ccc(N)cc2)c2cc(OC)c(OC)cc2C[C@@H]1C`, the melting point was in the range of 130 to 134 °C.

In turn, `CNC(=O)N1N=C(c2ccc([N+](=O)[O-])c(Cl)c2)c2cc(OC)c(OC)cc2CC1C` (stereo not shown) [75] yielded a melting point of 194 to 195 °C.

Take `COc1cc2c(cc1OC)C(c1ccc(N)c(Cl)c1)=NN(c1nccs1)[C@H](C)C2` [Example 115]: the melting point was 116 to 117 °C.

For the compound `COc1cc2c(cc1OC)C(c1ccc([N+](=O)[O-])c(Cl)c1)=NN(c1nccs1)C(C)C2` (stereo not shown) [Example 5], the melting point lay in the range of 168 to 169 °C.

The compound `COc1cc2c(cc1OC)C(c1ccc([N+](=O)[O-])cc1)=NN(c1nnco1)C(C)C2` (stereo not shown) [Example 29] had a melting point of 225 to 229 °C.

As to `COc1cc2c(cc1OC)C(c1ccc(N)cc1)=NN(C1=NCCO1)C(C)C2` (racemic) [Example 153], the melting point was 135 to 137 °C.

`COc1cc2c(cc1OC)C(c1ccc([N+](=O)[O-])c(Cl)c1)=NN(c1ncon1)C(C)C2` (stereo not shown) [Example 46] yielded a melting point of 206 to 208 °C.

For `COc1cc2c(cc1OC)C(c1ccc(N)cc1)=NN(c1ncn[nH]1)C(C)C2` (racemic) [Example 162], the melting point fell in the range of 152 to 155 °C.

`COc1cc2c(cc1OC)C(c1ccc([N+](=O)[O-])cc1)=NN(c1nccs1)C(C)C2` (stereo not shown) [Example 2] yielded a melting point of 151 to 152 °C.

Regarding `COc1cc2c(cc1OC)C(c1ccc(NC(C)=O)cc1)=NN(c1nncs1)C(C)C2` (stereo not shown) [Example 187], the melting point is 150 to 151 °C.
